Measured values: paper PMC8885417, “Pharmacological targeting of MTHFD2 suppresses acute myeloid leukemia by inducing thymidine depletion and replication stress” (Nature Cancer, 2022)
Where two headings read alike, the source gives them in different places.

Legend:
[1] = target: T1, MTHFD1-(DC) (Homo sapiens, UniProt P11586); assay: biochemical activity assay
T1 construct: dehydrogenase/cyclohydrolase (DC) domain

[2] = target: T2, Histamine H1 (Homo sapiens, UniProt P35367); assay: biochemical; set-up: Eurofins SafetyScreen44 panel of binding and enzyme assays, mean per cent inhibition of duplicate; conditions: read-out: Inhibition (%) at 10 µM TH9619
T2 construct: gene HRH1
Excerpt: (§1) Bars represent the mean change in protein melting temperature (ΔTm) of one experiment performed in triplicate. […] Bars represent mean inhibition in percentage of one experiment performed in duplicate.

[3] = target: T3, Adrenergic ß2 (Homo sapiens, UniProt P07550); assay: biochemical; set-up: Eurofins SafetyScreen44 panel of binding and enzyme assays, mean per cent inhibition of duplicate; conditions: read-out: Inhibition (%) at 10 µM TH9619
T3 construct: gene ADRB2
Excerpt: as §1

[4] = target: T4, Transporter, Norepinephrine (NET) (Homo sapiens, UniProt P23975); assay: biochemical; set-up: Eurofins SafetyScreen44 panel of binding and enzyme assays, mean per cent inhibition of duplicate; conditions: read-out: Inhibition (%) at 10 µM TH9619
T4 construct: gene SLC6A2
Excerpt: as §1

[5] = target: T5, Serotonin (5-Hydroxytryptamine) 5-HT1A (Homo sapiens, UniProt P08908); assay: biochemical; set-up: Eurofins SafetyScreen44 panel of binding and enzyme assays, mean per cent inhibition of duplicate; conditions: read-out: Inhibition (%) at 10 µM TH9619
T5 construct: gene HTR1A
Excerpt: as §1

[6] = target: Phosphodiesterase PDE3A (Homo sapiens, UniProt Q14432); assay: biochemical; set-up: Eurofins SafetyScreen44 panel of binding and enzyme assays, mean per cent inhibition of duplicate; conditions: read-out: Inhibition (%) at 10 µM TH9619
Excerpt: as §1

[7] = target: T6, Cyclooxygenase COX-2 (Homo sapiens, UniProt P35354); assay: biochemical; set-up: Eurofins SafetyScreen44 panel of binding and enzyme assays, mean per cent inhibition of duplicate; conditions: read-out: Inhibition (%) at 10 µM TH9619
T6 construct: gene PTGS2
Excerpt: as §1

[8] = target: T7, Adrenergic ß1 (Homo sapiens, UniProt P08588); assay: biochemical; set-up: Eurofins SafetyScreen44 panel of binding and enzyme assays, mean per cent inhibition of duplicate; conditions: read-out: Inhibition (%) at 10 µM TH9619
T7 construct: gene ADRB1
Excerpt: as §1

[9] = target: T8, Monoamine Oxidase MAO-A (Homo sapiens, UniProt P21397); assay: biochemical; set-up: Eurofins SafetyScreen44 panel of binding and enzyme assays, mean per cent inhibition of duplicate; conditions: read-out: Inhibition (%) at 10 µM TH9619
T8 construct: gene MAOA
Excerpt: as §1

[10] = target: T9, Adenosine A2A (Homo sapiens, UniProt P29274); assay: biochemical; set-up: Eurofins SafetyScreen44 panel of binding and enzyme assays, mean per cent inhibition of duplicate; conditions: read-out: Inhibition (%) at 10 µM TH9619
T9 construct: gene ADORA2A
Excerpt: as §1

[11] = target: T10, Adrenergic α1A (Homo sapiens, UniProt P35348); assay: biochemical; set-up: Eurofins SafetyScreen44 panel of binding and enzyme assays, mean per cent inhibition of duplicate; conditions: read-out: Inhibition (%) at 10 µM TH9619
T10 construct: gene ADRA1A
Excerpt: as §1

[12] = target: T11, Androgen (Testosterone) (Homo sapiens, UniProt P10275); assay: biochemical; set-up: Eurofins SafetyScreen44 panel of binding and enzyme assays, mean per cent inhibition of duplicate; conditions: read-out: Inhibition (%) at 10 µM TH9619
T11 construct: gene AR
Excerpt: as §1

[13] = target: T12, Endothelin ETA (Homo sapiens, UniProt P25101); assay: biochemical; set-up: Eurofins SafetyScreen44 panel of binding and enzyme assays, mean per cent inhibition of duplicate; conditions: read-out: Inhibition (%) at 10 µM TH9619
T12 construct: gene EDNRA
Excerpt: as §1

[14] = target: T13, Histamine H2 (Homo sapiens, UniProt P25021); assay: biochemical; set-up: Eurofins SafetyScreen44 panel of binding and enzyme assays, mean per cent inhibition of duplicate; conditions: read-out: Inhibition (%) at 10 µM TH9619
T13 construct: gene HRH2
Excerpt: as §1

[15] = target: T14, Cholecystokinin CCK1 (CCKA) (Homo sapiens, UniProt P32238); assay: biochemical; set-up: Eurofins SafetyScreen44 panel of binding and enzyme assays, mean per cent inhibition of duplicate; conditions: read-out: Inhibition (%) at 10 µM TH9619
T14 construct: gene CCKAR
Excerpt: as §1

[16] = target: T15, Cannabinoid CB1 (Homo sapiens, UniProt P21554); assay: biochemical; set-up: Eurofins SafetyScreen44 panel of binding and enzyme assays, mean per cent inhibition of duplicate; conditions: read-out: Inhibition (%) at 10 µM TH9619
T15 construct: gene CNR1
Excerpt: as §1

[17] = target: T16, Muscarinic M1 (Homo sapiens, UniProt P11229); assay: biochemical; set-up: Eurofins SafetyScreen44 panel of binding and enzyme assays, mean per cent inhibition of duplicate; conditions: read-out: Inhibition (%) at 10 µM TH9619
T16 construct: gene CHRM1
Excerpt: as §1

[18] = target: T17, Serotonin (5-Hydroxytryptamine) 5-HT3 (Homo sapiens, UniProt P46098); assay: biochemical; set-up: Eurofins SafetyScreen44 panel of binding and enzyme assays, mean per cent inhibition of duplicate; conditions: read-out: Inhibition (%) at 10 µM TH9619
T17 construct: gene HTR3A
Excerpt: as §1

[19] = target: T18, Vasopressin V1A (Homo sapiens, UniProt P37288); assay: biochemical; set-up: Eurofins SafetyScreen44 panel of binding and enzyme assays, mean per cent inhibition of duplicate; conditions: read-out: Inhibition (%) at 10 µM TH9619
T18 construct: gene AVPR1A
Excerpt: as §1

[20] = target: T19, Dopamine D1 (Homo sapiens, UniProt P21728); assay: biochemical; set-up: Eurofins SafetyScreen44 panel of binding and enzyme assays, mean per cent inhibition of duplicate; conditions: read-out: Inhibition (%) at 10 µM TH9619
T19 construct: gene DRD1
Excerpt: as §1

[21] = target: T20, Phosphodiesterase PDE4D2 (Homo sapiens, UniProt Q08499); assay: biochemical; set-up: Eurofins SafetyScreen44 panel of binding and enzyme assays, mean per cent inhibition of duplicate; conditions: read-out: Inhibition (%) at 10 µM TH9619
T20 construct: gene PDE4D; isoform PDE4D2
Excerpt: as §1

[22] = target: T21, Transporter, Serotonin (5-Hydroxytryptamine) (SERT) (Homo sapiens, UniProt P31645); assay: biochemical; set-up: Eurofins SafetyScreen44 panel of binding and enzyme assays, mean per cent inhibition of duplicate; conditions: read-out: Inhibition (%) at 10 µM TH9619
T21 construct: gene SLC6A4
Excerpt: as §1

[23] = target: T22, Transporter, Dopamine (DAT) (Homo sapiens, UniProt Q01959); assay: biochemical; set-up: Eurofins SafetyScreen44 panel of binding and enzyme assays, mean per cent inhibition of duplicate; conditions: read-out: Inhibition (%) at 10 µM TH9619
T22 construct: gene SLC6A3
Excerpt: as §1

[24] = target: T23, Serotonin (5-Hydroxytryptamine) 5-HT1B (Homo sapiens, UniProt P28222); assay: biochemical; set-up: Eurofins SafetyScreen44 panel of binding and enzyme assays, mean per cent inhibition of duplicate; conditions: read-out: Inhibition (%) at 10 µM TH9619
T23 construct: gene HTR1B
Excerpt: as §1

[25] = target: T24, Muscarinic M3 (Homo sapiens, UniProt P20309); assay: biochemical; set-up: Eurofins SafetyScreen44 panel of binding and enzyme assays, mean per cent inhibition of duplicate; conditions: read-out: Inhibition (%) at 10 µM TH9619
T24 construct: gene CHRM3
Excerpt: as §1

[26] = target: T25, Cholinesterase,Acetyl, ACES (Homo sapiens, UniProt P22303); assay: biochemical; set-up: Eurofins SafetyScreen44 panel of binding and enzyme assays, mean per cent inhibition of duplicate; conditions: read-out: Inhibition (%) at 10 µM TH9619
T25 construct: gene ACHE
Excerpt: as §1

[27] = target: T26, Cannabinoid CB2 (Homo sapiens, UniProt P34972); assay: biochemical; set-up: Eurofins SafetyScreen44 panel of binding and enzyme assays, mean per cent inhibition of duplicate; conditions: read-out: Inhibition (%) at 10 µM TH9619
T26 construct: gene CNR2
Excerpt: as §1

[28] = target: T27, Glucocorticoid (Homo sapiens, UniProt P04150); assay: biochemical; set-up: Eurofins SafetyScreen44 panel of binding and enzyme assays, mean per cent inhibition of duplicate; conditions: read-out: Inhibition (%) at 10 µM TH9619
T27 construct: gene NR3C1
Excerpt: as §1

[29] = target: T28, Muscarinic M2 (Homo sapiens, UniProt P08172); assay: biochemical; set-up: Eurofins SafetyScreen44 panel of binding and enzyme assays, mean per cent inhibition of duplicate; conditions: read-out: Inhibition (%) at 10 µM TH9619
T28 construct: gene CHRM2
Excerpt: as §1

[30] = target: Protein Tyrosine Kinase, LCK (Homo sapiens, UniProt P06239); assay: biochemical; set-up: Eurofins SafetyScreen44 panel of binding and enzyme assays, mean per cent inhibition of duplicate; conditions: read-out: Inhibition (%) at 10 µM TH9619
Excerpt: as §1

[31] = target: T29, Potassium Channel hERG, [3H]Dofetilide (Homo sapiens, UniProt Q12809); assay: in vitro; set-up: Eurofins SafetyScreen44 panel of binding and enzyme assays, mean per cent inhibition of duplicate
T29 construct: gene KCNH2; dofetilide site
Excerpt: as §1

[32] = target: T30, Serotonin (5-Hydroxytryptamine) 5-HT2B (Homo sapiens, UniProt P41595); assay: biochemical; set-up: Eurofins SafetyScreen44 panel of binding and enzyme assays, mean per cent inhibition of duplicate; conditions: read-out: Inhibition (%) at 10 µM TH9619
T30 construct: gene HTR2B
Excerpt: as §1

[33] = target: T31, Adrenergic α2A (Homo sapiens, UniProt P08913); assay: biochemical; set-up: Eurofins SafetyScreen44 panel of binding and enzyme assays, mean per cent inhibition of duplicate; conditions: read-out: Inhibition (%) at 10 µM TH9619
T31 construct: gene ADRA2A
Excerpt: as §1

[34] = target: T32, Opiate µ (OP3, MOP) (Homo sapiens, UniProt P35372); assay: biochemical; set-up: Eurofins SafetyScreen44 panel of binding and enzyme assays, mean per cent inhibition of duplicate; conditions: read-out: Inhibition (%) at 10 µM TH9619
T32 construct: gene OPRM1
Excerpt: as §1

[35] = target: T33, Cyclooxygenase COX-1 (Homo sapiens, UniProt P23219); assay: biochemical; set-up: Eurofins SafetyScreen44 panel of binding and enzyme assays, mean per cent inhibition of duplicate; conditions: read-out: Inhibition (%) at 10 µM TH9619
T33 construct: gene PTGS1
Excerpt: as §1

[36] = target: T34, Dopamine D2S (Homo sapiens, UniProt P14416); assay: biochemical; set-up: Eurofins SafetyScreen44 panel of binding and enzyme assays, mean per cent inhibition of duplicate; conditions: read-out: Inhibition (%) at 10 µM TH9619
T34 construct: gene DRD2; isoform D2S (short)
Excerpt: as §1

[37] = target: T35, Nicotinic Acetylcholine a4ß2, Cytisine (Homo sapiens, UniProt P17787+P43681); assay: biochemical; set-up: Eurofins SafetyScreen44 panel of binding and enzyme assays, mean per cent inhibition of duplicate; conditions: read-out: Inhibition (%) at 10 µM TH9619
T35 construct: gene CHRNB2; cytisine site
Excerpt: as §1

[38] = target: T36, Opiate κ (OP2, KOP) (Homo sapiens, UniProt P41145); assay: biochemical; set-up: Eurofins SafetyScreen44 panel of binding and enzyme assays, mean per cent inhibition of duplicate; conditions: read-out: Inhibition (%) at 10 µM TH9619
T36 construct: gene OPRK1
Excerpt: as §1

[39] = target: MTHFD2L (Homo sapiens, UniProt Q9H903); assay: biochemical activity assay
[40] = target: MTHFD2 (Homo sapiens, UniProt P13995); assay: cocrystal structure with NAD+; enzymatic IC50; CETSA; assay type: biochemical

T1 sequence (P11586 2-306 limits assumed): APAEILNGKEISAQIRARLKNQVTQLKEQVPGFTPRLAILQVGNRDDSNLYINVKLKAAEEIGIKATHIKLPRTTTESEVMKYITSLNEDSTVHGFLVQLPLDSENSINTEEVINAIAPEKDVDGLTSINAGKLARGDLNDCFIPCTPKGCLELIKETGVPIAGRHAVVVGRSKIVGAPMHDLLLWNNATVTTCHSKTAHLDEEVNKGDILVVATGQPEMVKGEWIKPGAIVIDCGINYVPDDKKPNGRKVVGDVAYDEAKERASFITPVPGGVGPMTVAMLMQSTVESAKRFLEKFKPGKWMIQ
MTHFD2L, sequence (Q9H903 whole entry): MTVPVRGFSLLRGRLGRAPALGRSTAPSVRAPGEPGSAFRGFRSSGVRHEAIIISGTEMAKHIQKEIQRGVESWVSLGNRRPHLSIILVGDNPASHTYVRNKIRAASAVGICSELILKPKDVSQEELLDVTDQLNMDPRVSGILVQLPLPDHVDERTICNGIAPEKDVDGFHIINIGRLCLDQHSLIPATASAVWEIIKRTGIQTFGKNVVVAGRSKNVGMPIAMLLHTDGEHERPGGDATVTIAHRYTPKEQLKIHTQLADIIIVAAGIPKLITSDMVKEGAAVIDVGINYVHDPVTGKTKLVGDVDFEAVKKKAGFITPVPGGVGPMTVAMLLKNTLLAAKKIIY
T28 sequence (P08172 whole entry): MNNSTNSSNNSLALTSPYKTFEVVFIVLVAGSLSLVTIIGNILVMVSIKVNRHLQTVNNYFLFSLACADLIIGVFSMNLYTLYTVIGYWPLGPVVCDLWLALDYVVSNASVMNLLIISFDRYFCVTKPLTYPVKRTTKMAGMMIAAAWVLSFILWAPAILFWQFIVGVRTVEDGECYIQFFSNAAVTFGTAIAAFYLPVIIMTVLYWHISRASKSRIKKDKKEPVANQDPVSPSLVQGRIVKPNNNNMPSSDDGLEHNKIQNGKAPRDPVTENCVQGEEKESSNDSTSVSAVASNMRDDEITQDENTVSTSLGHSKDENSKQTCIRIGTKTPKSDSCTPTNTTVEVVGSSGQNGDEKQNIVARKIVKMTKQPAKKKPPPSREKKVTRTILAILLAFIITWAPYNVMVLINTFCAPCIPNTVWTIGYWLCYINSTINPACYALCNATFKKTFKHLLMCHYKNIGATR
Protein Tyrosine Kinase, LCK, sequence (P06239 whole entry): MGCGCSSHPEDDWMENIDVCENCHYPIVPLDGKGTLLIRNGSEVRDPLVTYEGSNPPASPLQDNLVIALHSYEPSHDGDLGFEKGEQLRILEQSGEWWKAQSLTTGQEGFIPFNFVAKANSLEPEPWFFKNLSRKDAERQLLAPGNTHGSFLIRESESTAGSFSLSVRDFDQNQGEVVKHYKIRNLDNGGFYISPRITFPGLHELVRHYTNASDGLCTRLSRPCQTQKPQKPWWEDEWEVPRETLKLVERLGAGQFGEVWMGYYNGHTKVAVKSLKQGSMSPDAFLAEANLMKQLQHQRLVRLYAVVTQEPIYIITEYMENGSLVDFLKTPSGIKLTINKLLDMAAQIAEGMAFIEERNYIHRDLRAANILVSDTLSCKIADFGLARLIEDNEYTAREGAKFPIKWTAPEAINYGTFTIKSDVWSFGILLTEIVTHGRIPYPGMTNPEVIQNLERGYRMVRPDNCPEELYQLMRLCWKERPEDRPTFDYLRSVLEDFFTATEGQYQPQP
T35 sequence (P17787 whole entry): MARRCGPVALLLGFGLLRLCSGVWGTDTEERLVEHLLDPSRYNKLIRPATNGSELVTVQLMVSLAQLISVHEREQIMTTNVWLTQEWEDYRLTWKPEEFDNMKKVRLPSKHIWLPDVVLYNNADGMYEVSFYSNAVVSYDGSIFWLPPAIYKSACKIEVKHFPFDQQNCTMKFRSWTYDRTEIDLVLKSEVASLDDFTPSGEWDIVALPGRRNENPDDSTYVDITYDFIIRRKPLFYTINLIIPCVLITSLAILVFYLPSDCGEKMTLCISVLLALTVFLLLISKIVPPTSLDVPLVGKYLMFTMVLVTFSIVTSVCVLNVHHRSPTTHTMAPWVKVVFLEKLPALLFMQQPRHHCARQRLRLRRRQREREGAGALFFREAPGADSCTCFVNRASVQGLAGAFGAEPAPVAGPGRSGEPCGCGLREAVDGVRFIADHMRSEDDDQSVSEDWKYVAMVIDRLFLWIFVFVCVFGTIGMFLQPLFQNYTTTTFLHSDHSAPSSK
T35 sequence (P43681 whole entry): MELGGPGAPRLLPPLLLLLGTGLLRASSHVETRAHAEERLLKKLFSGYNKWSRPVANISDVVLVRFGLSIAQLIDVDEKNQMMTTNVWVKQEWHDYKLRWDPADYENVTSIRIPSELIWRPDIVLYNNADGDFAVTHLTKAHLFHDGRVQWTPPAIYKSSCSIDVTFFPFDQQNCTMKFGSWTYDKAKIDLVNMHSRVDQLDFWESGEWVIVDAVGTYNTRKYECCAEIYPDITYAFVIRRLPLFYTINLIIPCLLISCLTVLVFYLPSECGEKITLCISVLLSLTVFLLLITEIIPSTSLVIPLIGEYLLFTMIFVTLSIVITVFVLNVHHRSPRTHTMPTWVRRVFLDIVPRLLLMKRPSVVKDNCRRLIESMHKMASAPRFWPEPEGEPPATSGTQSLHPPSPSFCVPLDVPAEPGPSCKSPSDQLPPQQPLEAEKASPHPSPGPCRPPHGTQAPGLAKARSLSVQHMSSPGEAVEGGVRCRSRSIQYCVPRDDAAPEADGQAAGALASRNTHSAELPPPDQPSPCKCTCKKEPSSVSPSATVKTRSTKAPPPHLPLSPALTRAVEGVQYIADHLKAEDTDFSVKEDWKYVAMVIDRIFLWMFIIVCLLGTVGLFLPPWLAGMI
T13 sequence (P25021 whole entry): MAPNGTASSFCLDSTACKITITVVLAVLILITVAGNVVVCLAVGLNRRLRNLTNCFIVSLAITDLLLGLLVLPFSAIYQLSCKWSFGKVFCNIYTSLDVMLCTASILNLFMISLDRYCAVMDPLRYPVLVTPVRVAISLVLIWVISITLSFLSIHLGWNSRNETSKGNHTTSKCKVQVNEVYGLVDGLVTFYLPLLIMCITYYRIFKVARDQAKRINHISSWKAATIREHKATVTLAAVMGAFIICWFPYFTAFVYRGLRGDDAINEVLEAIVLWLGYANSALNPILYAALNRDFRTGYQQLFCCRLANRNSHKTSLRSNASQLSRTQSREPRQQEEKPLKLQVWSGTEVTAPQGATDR
T17 sequence (P46098 whole entry): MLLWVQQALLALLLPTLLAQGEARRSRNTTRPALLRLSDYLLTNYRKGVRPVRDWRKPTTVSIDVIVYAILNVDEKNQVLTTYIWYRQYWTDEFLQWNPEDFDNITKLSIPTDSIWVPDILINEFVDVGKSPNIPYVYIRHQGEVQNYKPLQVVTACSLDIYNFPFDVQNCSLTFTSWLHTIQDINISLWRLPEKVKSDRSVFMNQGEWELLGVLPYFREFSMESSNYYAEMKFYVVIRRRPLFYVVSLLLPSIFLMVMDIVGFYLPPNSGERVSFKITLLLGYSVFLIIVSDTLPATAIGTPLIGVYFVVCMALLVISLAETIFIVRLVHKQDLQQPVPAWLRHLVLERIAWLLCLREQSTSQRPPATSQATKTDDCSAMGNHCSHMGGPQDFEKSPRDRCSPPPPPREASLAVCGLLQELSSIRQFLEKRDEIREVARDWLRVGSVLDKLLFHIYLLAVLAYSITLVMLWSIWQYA
T34 sequence (P14416 whole entry, canonical isoform): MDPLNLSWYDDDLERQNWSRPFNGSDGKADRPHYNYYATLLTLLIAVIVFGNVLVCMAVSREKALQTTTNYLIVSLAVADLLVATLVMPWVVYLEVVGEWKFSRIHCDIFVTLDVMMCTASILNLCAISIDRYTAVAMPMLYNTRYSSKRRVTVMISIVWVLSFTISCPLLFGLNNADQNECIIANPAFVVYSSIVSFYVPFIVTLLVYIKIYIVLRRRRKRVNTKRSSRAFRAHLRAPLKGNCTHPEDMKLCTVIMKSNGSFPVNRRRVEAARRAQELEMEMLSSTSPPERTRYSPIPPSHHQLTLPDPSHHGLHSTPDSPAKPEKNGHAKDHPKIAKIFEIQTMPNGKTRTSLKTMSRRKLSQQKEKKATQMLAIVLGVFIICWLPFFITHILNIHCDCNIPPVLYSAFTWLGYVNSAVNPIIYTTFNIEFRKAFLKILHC
T10 sequence (P35348 whole entry): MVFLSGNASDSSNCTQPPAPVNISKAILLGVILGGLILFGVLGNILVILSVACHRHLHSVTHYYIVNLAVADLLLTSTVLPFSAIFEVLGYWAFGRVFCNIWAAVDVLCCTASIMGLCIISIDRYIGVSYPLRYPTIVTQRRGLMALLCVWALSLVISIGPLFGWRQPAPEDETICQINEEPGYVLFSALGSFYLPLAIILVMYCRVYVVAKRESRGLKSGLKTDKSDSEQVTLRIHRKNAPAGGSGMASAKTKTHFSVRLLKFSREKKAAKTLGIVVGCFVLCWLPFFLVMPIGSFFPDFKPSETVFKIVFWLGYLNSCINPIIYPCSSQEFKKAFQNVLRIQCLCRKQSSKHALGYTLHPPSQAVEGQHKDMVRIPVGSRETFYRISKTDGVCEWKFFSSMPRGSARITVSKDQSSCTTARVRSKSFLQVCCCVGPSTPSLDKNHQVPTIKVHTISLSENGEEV
T36 sequence (P41145 whole entry): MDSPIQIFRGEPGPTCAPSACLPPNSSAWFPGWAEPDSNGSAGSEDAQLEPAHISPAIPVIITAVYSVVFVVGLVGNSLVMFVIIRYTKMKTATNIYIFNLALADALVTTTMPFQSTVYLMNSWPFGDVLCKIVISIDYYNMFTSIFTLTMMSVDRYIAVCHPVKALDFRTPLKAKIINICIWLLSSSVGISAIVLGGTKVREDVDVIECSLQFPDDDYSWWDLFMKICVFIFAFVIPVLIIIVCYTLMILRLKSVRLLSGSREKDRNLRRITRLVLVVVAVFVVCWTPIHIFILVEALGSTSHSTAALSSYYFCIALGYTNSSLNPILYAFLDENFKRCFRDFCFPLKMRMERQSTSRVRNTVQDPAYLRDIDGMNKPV

Molecule: Nc1nc2c(c(=O)[nH]1)N1C(=O)N(c3ccc(C(=O)N[C@@H](CCC(=O)O)C(=O)O)cc3)CC1CN2 (stereo partly drawn) [LY345899]
- IC50 [1]: 535 nM

Molecule: Nc1nc(N)c(CC(=O)Nc2cnc(C(=O)N[C@@H](CCC(=O)O)C(=O)O)c(F)c2)c(=O)[nH]1 [TH9619]
- inhibition at 10 µM [2]: 7%
- inhibition at 10 µM [3]: 1%
- inhibition at 10 µM [4]: -12%
- inhibition at 10 µM [5]: 0%
- inhibition at 10 µM [6]: -3%
- inhibition at 10 µM [7]: 16%
- inhibition at 10 µM [8]: 0%
- inhibition at 10 µM [9]: 6%
- inhibition at 10 µM [10]: 11%
- inhibition at 10 µM [11]: 9%
- inhibition at 10 µM [12]: 3%
- inhibition at 10 µM [13]: -7%
- inhibition at 10 µM [14]: -6%
- inhibition at 10 µM [15]: 7%
- inhibition at 10 µM [16]: 0%
- inhibition at 10 µM [17]: -7%
- inhibition at 10 µM [18]: -4%
- inhibition at 10 µM [19]: -15%
- inhibition at 10 µM [20]: 5%
- inhibition at 10 µM [21]: -1%
- inhibition at 10 µM [22]: 5%
- inhibition at 10 µM [23]: -7%
- inhibition at 10 µM [24]: -8%
- inhibition at 10 µM [25]: -2%
- inhibition at 10 µM [26]: 21%
- inhibition at 10 µM [27]: -3%
- inhibition at 10 µM [28]: 3%
- inhibition at 10 µM [29]: -29%
- inhibition at 10 µM [30]: 1%
- inhibition at 10 µM [31]: 5%
- inhibition at 10 µM [32]: 1%
- inhibition at 10 µM [33]: 9%
- inhibition at 10 µM [34]: -10%
- inhibition at 10 µM [35]: 9%
- inhibition at 10 µM [36]: 1%
- inhibition at 10 µM [37]: 2%
- inhibition at 10 µM [38]: 5%

Molecule: Nc1nc(N)c(NC(=O)Nc2ccc(C(=O)N[C@@H](CCC(=O)O)C(=O)O)cc2)c(=O)[nH]1 [TH7299]
- IC50 [39]: 126 nM

Molecule: TH9028
- IC50 [40]: 11 nM
- IC50 ([39]; read-out: MTHFD2L IC50): 27 nM
- IC50 [1]: 0.5 nM
